Legend:
recombinant human VDAC1 [1] = assay: In vitro binding assay of SOD1 proteins to VDAC1 immobilized on Ni-NTA magnetic beads (western blot); details: 6.25 μM SOD1, 1 h RT, n = 3
Protocol: (§1) Intact isolated mitochondria from the motor neuron-like NSC34 cells were incubated with SOD1 WT or G93A, and mitochondrial membranes were precipitated by centrifugation. […] The affinity of SOD1 proteins for VDAC1 was then studied by using an in vitro binding assay. Purified and refolded VDAC1 was immobilized on Ni-NTA magnetic beads and incubated with SOD1 proteins. Then, VDAC1-binding complexes were isolated by the application of a magnetic field. […] The VDAC1-SOD1 interaction was quantitatively assayed by Microscale Thermophoresis (MST) analysis. MST measures any variation in the thermal migration of a fluorescently labeled binding partner; changes of fluorescence in a heated spot of the protein solution is a function of increasing interacting protein concentration, and can be exploited to calculate the binding affinity coefficient (Kd). The fluorescent-labeled VDAC1 was incubated with increasing concentrations of SOD1 proteins and the changes in fluorescence monitored. […] Depletion curve was used to calculate the Kd, which was estimated 4,81 μM.
Recombinant VDAC1 was immobilized onto Ni-NTA Magnetic Agarose Beads (Qiagen) by exploiting its 6xHis-tag, according with manufacture’s protocol. […] Any protein in VDAC1-bound and -unbound fractions was evaluated by western blot. […]

[2] = tested on: human VDAC1 reconstituted into PLB; assay: VDAC1 channel conductance in planar lipid bilayer (PLB); format: biochemical; details: for effect on single channel VDAC1 conductance: 1 M KCl, +25 mV, 0.2 μM SOD1 proteins or 15 μM peptide; for effect on voltage-dependence of VDAC1, triangular voltage ramps: symmetric 1 M KCl, ramps 0 to ±50 mV
Excerpt: Purified VDAC1 was reconstituted into a planar phospholipid bilayer (PLB) and its channel conductance was monitored before and after addition of SOD1 proteins, on cis or trans side of the membrane. […] Moreover, the effect of SOD1 proteins on the voltage-dependence of VDAC1 was monitored by triangular voltage ramps from 0 to ±50 mV. […] The current linearly follows the voltage applied up to about ±25 mV, where VDAC1 decreases its channel conductance through step-like transitions, remaining in low-conducting states.
Under standard experimental condition (1 M KCl and an applied potential of +25 mV) the VDAC1 channel was mainly in low-conducting closed states. […] The effect of NHK1 on the channel conductance is even more evident by plotting the amplitude values obtained in the current traces as a function of the number of events. While for VDAC1 alone the amplitude values appear as a main peak corresponding to the closed states (Fig. 4B), the presence of NHK1 caused a different distribution of events: an additional, different peak corresponding to the open state was visible, together with the closed states peak (Fig. 4C). […] The effect of NHK1 on the voltage-dependence of VDAC1 was monitored by triangular voltage ramps. […] In this experiment, indeed, VDAC1 completely loose, very precociously (already at ±15 mV applied), its ability to linearly respond to the applied voltage: a continuous switch from open to closed states was observed, especially at positive potentials. […] Upon NHK1 incubation, VDAC1 current transitions at positive voltages are very noisy and pass through different sub-conductance states (Fig. 4F).
Purified VDAC1 was reconstituted into a Planar Lipid Bilayer (PLB) apparatus (Warner Instruments, Hamden, CT, USA), previously described. Bilayers were prepared using asolectin (Sigma) dissolved in decane (Sigma) containing 1% chloroform (Sigma) across a 200 μm hole in a derlin cuvette (Warner Instruments). Experiments were performed in 1 M KCl, 10 mM Hepes, pH 7.0[40][46]. Control experiments using empty membrane and/or detergents were performed to avoid activity in any of the above solutions. Data were acquired using a Bilayer Clamp amplifier (Warner Instruments) at 100 μs/point, filtered at 200 Hz and analyzed offline using Clampfit 10.4 program set (Axon Instruments, Union City, CA, USA). Single channel analysis of VDAC1 was performed in presence or not of 0.2 μM of SOD1 WT or G93A, 15 μM NHK1 or ScNHK1 peptide.

[3] = tested on: intact mitochondria purified from NSC34 cells; assay: Mitochondrial binding assay of SOD1 proteins (western blot); design: species or system mouse; details: 2 μg SOD1, 1 h RT, n = 3
Protocol: Intact isolated mitochondria from the motor neuron-like NSC34 cells were incubated with SOD1 WT or G93A, and mitochondrial membranes were precipitated by centrifugation. […] The affinity of SOD1 proteins for VDAC1 was then studied by using an in vitro binding assay. Purified and refolded VDAC1 was immobilized on Ni-NTA magnetic beads and incubated with SOD1 proteins. Then, VDAC1-binding complexes were isolated by the application of a magnetic field. […] The VDAC1-SOD1 interaction was quantitatively assayed by Microscale Thermophoresis (MST) analysis. MST measures any variation in the thermal migration of a fluorescently labeled binding partner; changes of fluorescence in a heated spot of the protein solution is a function of increasing interacting protein concentration, and can be exploited to calculate the binding affinity coefficient (Kd). The fluorescent-labeled VDAC1 was incubated with increasing concentrations of SOD1 proteins and the changes in fluorescence monitored. […]
Intact mitochondria were purified from NSC34 cells by Mitochondrial isolation kit (Miltenyi Biotech), according with manufacturer’s instructions. Isolated, intact mitochondria, in the storage buffer provided, were quantified by Lowry method. […] Proteins in mitochondrial or supernatant fraction were detected by western blot and quantified as explained in Supplementary Information. […]

recombinant human VDAC1 [4] = assay: Microscale Thermophoresis (MST) analysis of VDAC1-SOD1 interaction; format: binding; details: 100 nM labeled VDAC1, SOD1 1.22 nM to 20 μM
Protocol: as §1
Microscale Thermophoresis (MST) analysis was performed using the NanoTemper Monolith NT.115 apparatus (NanoTemper Technologies, Munich, Germany) as described. VDAC1 was fluorescently-labeled using the NanoTemper protein-labeling kit Green/Blue. […]

NSC34-SOD1G93A cells = assay: Mitochondrial membrane potential (ΔΨm) by flow cytometry; format: cell-based, mouse; details: NSC34-SOD1G93A expressing HK1; RH123; n = 3
Protocol: To evaluate the NHK1 influence on mitochondrial functionality, mitochondrial membrane potential variation (ΔΨm) was assayed in the presence of NHK1 peptide or HK1. ΔΨm is related to the ATP production by oxidative phosphorylation; therefore, it is considered an indication of good mitochondrial and cellular health. Using mitochondria-targeted fluorescent probes, we estimated in flow cytometry the rate of mitochondrial depolarization. NSC34-SOD1G93A cells shown a high level of depolarized mitochondria compared to NSC34-SOD1WT. […] Similarly to NHK1 peptide, the expression of the whole HK1 reduced the depolarized mitochondria of about 15% (Fig. 7C).
ΔΨm was measured using tetramethyl-rhodamine methyl ester (TMRM) or Rhodamine 123 (RH123) (Molecular Probes) according to the excitation/emission wavelength of the transfection reporter or of the transfected fluorescent protein used. Both probes accumulates in active mitochondria due to their positive charge, whereby the reduction of ΔΨm leads to the release of fluorescent probes. Transfected NSC34-SOD1WT and NSC34-SOD1G93A cells were washed with PBS and incubated for 30 min at 37 °C with Krebs Ringer Buffered Saline supplemented with either 200 nM TMRM or 0.1 μg/mL RH123 and 20 μM Verapamil (as a multi drug-resistant pump inhibitor) (Sigma). Cells were then harvested and immediately analyzed by flow cytometry. Cells were excited by an air-cooled argon 488 nm laser, reading the GFP fluorescence of HK1-GFP or RH123 fluorescence in FL1 log mode; TMRM and mtDsRED used as transfection reporter of NHK1 peptide were read on FL3 log mode. Only viable cells detected by reading the scattering indicated as FSC and SSC, were considered for our analysis. The threshold physiological value of ΔΨm was estimated by using cells exposed to 1 μM of the uncoupling agent FCCP as a negative control. Data reported are representative for three sets of independent experiments, each performed at least in triplicate and based on 20.000 events for each group. Data were statistical analyzed by chi-square test. A p < 0,001 was taken as significant.

[5] = tested on: VDAC1-SOD1 G93A interaction; assay: In vitro VDAC1-SOD1 G93A binding assay after pre-incubation with HK1 or peptide (western blot, densitometry); design: species or system human; details: 200 μM HK1 pre-incubated 1 h, 6.25 μM SOD1 G93A; with respect to control; n = 3
Excerpt: It is well known that HKs bind to VDAC1 in physiological conditions. We hypothesized that the available area for interaction with soluble proteins is a limited, exposed portion of the transmembrane pore VDAC1. […] For this reason, we repeated the VDAC1-SOD1 G93A binding assay, adding increasing concentrations of HK1. […] The reduction corresponds to the increase of HK1 in VDAC1-bound fraction, and it is proportional to the HK1 concentrations added in the assay (Fig. 3A).
In order to evaluate the NHK1 ability to interfere with VDAC1-SOD1 G93A interaction, a binding assay was performed. Increasing concentrations of NHK1 were added to immobilized-VDAC1, before SOD1 G93A addition. […] In fact, a 20-fold smaller concentration of peptide was used to obtain a result similar to that obtained by using the whole HK1 in the previous experiment (see Fig. 3A).
Recombinant VDAC1 was immobilized onto Ni-NTA Magnetic Agarose Beads (Qiagen) by exploiting its 6xHis-tag, according with manufacture’s protocol. For each experiment, a large excess of VDAC1 (30 μM) were incubated with 50 μL of beads suspension in Interaction Buffer (IB) (300 mM NaCl, 50 mM NaH2PO4, 20 mM imidazole, pH 8.0) to saturate all sites. Beads were collected using the magnet-based system DynaMag-2 (Life Technologies) and washed twice in Wash Buffer (300 mM NaCl, 50 mM NaH2PO4, 20 mM imidazole, 0.05% Tween-20, pH 6.3) to remove any excess of VDAC1. Beads-immobilized VDAC1 were incubated with 6.25 μM SOD1 WT or G93A, for 1 h at RT, under constant shaking, in 100 μL of IB. The assay was also performed by pre-incubating immobilized-VDAC1 for an extra 1 h with increasing concentration of purified human HK1 (0, 100, 200 μM) or NHK1 peptide (0, 5, 10, 25 μM), before SOD1 G93A addition. Beads were recovered using Dyna-Mag2 system and VDAC1-complexes were eluted from beads using 50 μL of Elution Buffer (300 mM NaCl, 50 mM NaH2PO4, 300 mM imidazole, pH 3.5). Any protein in VDAC1-bound and -unbound fractions was evaluated by western blot. Three independent experiments were performed for each condition tested.

Molecule | distribution between VDAC1-bound and -unbound fraction (recombinant human VDAC1 [1]) | effect on single channel VDAC1 conductance [2] | effect on voltage-dependence of VDAC1, triangular voltage ramps [2] | distribution between mitochondrial pellet and supernatant [3] | change of fluorescence of labeled VDAC1 with increasing SOD1 concentration (recombinant human VDAC1 [4]) | reduction of depolarized mitochondria (NSC34-SOD1G93A cells) | decrease of SOD1 G93A bound to immobilized VDAC1 [5]
SOD1 G93A: Strep-tagged recombinant human ALS-linked SOD1 G93A mutant expressed in E. coli | distributed between VDAC1-bound and -unbound fraction | promoted VDAC1 channel instability | perturbation of voltage-dependence | co-precipitated in the mitochondrial pellet | produced fluorescence decrease | – | –
SOD1 WT: Strep-tagged recombinant human SOD1 wild type expressed in E. coli | almost exclusively in the unbound fraction | did not modify the VDAC1 closed state | no modification in the usual VDAC1 pattern | found exclusively in the supernatant | no fluorescence change | – | –
HK1: recombinant human HK1 purchased by Sigma; in cells expressed from plasmid (protein) MIAAQLLAYYFTELKDDQVKKIDKYLYAMRLSDETLIDIMTRFRKEMKNGLSRDFNPTATVKMLPTFVRSIPDGSEKGDFIALDLGGSSFRILRVQVNHEKNQNVHMESEVYDTPENIVHGSGSQLFDHVAECLGDFMEKRKIKDKKLPVGFTFSFPCQQSKIDEAILITWTKRFKASGVEGADVVKLLNKAIKKRGDYDANIVAVVNDTVGTMMTCGYDDQHCEVGLIIGTGTNACYMEELRHIDLVEGDEGRMCINTEWGAFGDDGSLEDIRTEFDREIDRGSLNPGKQLFEKMVSGMYLGELVRLILVKMAKEGLLFEGRITPELLTRGKFNTSDVSAIEKNKEGLHNAKEILTRLGVEPSDDDCVSVQHVCTIVSFRSANLVAATLGAILNRLRDNKGTPRLRTTVGVDGSLYKTHPQYSRRFHKTLRRLVPDSDVRFLLSESGSGKGAAMVTAVAYRLAEQHRQIEETLAHFHLTKDMLLEVKKRMRAEMELGLRKQTHNNAVVKMLPSFVRRTPDGTENGDFLALDLGGTNFRVLLVKIRSGKKRTVEMHNKIYAIPIEIMQGTGEELFDHIVSCISDFLDYMGIKGPRMPLGFTFSFPCQQTSLDAGILITWTKGFKATDCVGHDVVTLLRDAIKRREEFDLDVVAVVNDTVGTMMTCAYEEPTCEVGLIVGTGSNACYMEEMKNVEMVEGDQGQMCINMEWGAFGDNGCLDDIRTHYDRLVDEYSLNAGKQRYEKMISGMYLGEIVRNILIDFTKKGFLFRGQISETLKTRGIFETKFLSQIESDRLALLQVRAILQQLGLNSTCDDSILVKTVCGVVSRRAAQLCGAGMAAVVDKIRENRGLDRLNVTVGVDGTLYKLHPHFSRIMHQTVKELSPKCNVSFLLSEDGSGKGAALITAVGVRLRTEASS | – | – | – | – | – | about 15% | about 40%

Source: paper PMC5056396, “Hexokinase I N-terminal based peptide prevents the VDAC1-SOD1 G93A interaction and re-establishes ALS cell viability” (Scientific Reports, 2016)
